From patent US11787799B2 (priority 2015, dated 2023)
Where two headings read alike, the source gives them in different places.

Columns and labels:
[1] = in vitro; conditions: African green monkey
[2] = test system: Measles; experiment: microbe, parasite or virus in culture; type: cell-based
[3] = in vitro; conditions: African green monkey; remark: listed apart in the source
[4] = test system: Yellow Fever Virus; experiment: microbe, parasite or virus in culture; type: cell-based; conditions: read-out: EC50 Yellow Fever Virus
[5] = test system: BHK; conditions: read-out: CC50 (Powassan test)
[6] = test system: MA-104
[7] = test system: Echovirus 9; experiment: microbe, parasite or virus in culture; type: cell-based; conditions: read-out: EC50 ECHO09
[8] = test system: Coxsackievirus B4; experiment: microbe, parasite or virus in culture; type: cell-based
[9] = test system: Poliovirus 1; experiment: microbe, parasite or virus in culture; type: cell-based; conditions: read-out: EC50 PV1
[10] = test system: Enterovirus D68/Fermon; experiment: Antiviral assay, Enterovirus D68 strain Fermon in RD cells; type: cell-based
[11] = test system: SARS Coronavirus; type: cell-based
[12] = test system: Chikungunya; type: cell-based, chikungunya virus
[13] = test system: Powassan; type: cell-based, Powassan virus
[14] = test system: BHK-21; conditions: read-out: CC50 (Rabies test)
[15] = test system: Vero; conditions: read-out: CC50 (Yellow Fever Virus test)
[16] = test system: Echovirus 6; experiment: microbe, parasite or virus in culture; type: cell-based; conditions: read-out: EC50 ECHO06
[17] = test system: Echovirus 11; experiment: microbe, parasite or virus in culture; type: cell-based; conditions: read-out: EC50 ECHO11
[18] = test system: Echovirus 25; experiment: microbe, parasite or virus in culture; type: cell-based; conditions: read-out: EC50 ECHO25
[19] = test system: RD cells
[20] = test system: LLC cells
[21] = test system: MDCK
[22] = test system: Enterovirus 71; experiment: microbe, parasite or virus in culture; type: cell-based
[23] = test system: Venezuelan Encephalitis; type: cell-based, Venezuelan encephalitis virus
[24] = test system: Rift Valley virus; experiment: organism not typed; type: cell-based
[25] = test system: Influenza A H1N1; experiment: microbe, parasite or virus in culture; type: cell-based; conditions: read-out: EC50 Influenza A H1N1
[26] = test system: Rabies; type: cell-based, rabies virus
[27] = test system: Poliovirus 3; experiment: microbe, parasite or virus in culture; type: cell-based; conditions: read-out: EC50 PV3
[28] = test system: Japanese Encephalitis; type: cell-based
[29] = test system: Punta Toro virus; experiment: microbe, parasite or virus in culture; type: cell-based
[30] = test system: Echovirus 7; experiment: microbe, parasite or virus in culture; type: cell-based; conditions: read-out: EC50 ECHO07
[31] = test system: HeLa-RW cells
[32] = test system: Coxsackievirus B5; experiment: microbe, parasite or virus in culture; type: cell-based
[33] = test system: Coxsackievirus B2; experiment: microbe, parasite or virus in culture; type: cell-based
[34] = test system: RSV (resp syncitial virus); experiment: microbe, parasite or virus in culture; type: cell-based
[35] = test system: Echovirus 30; experiment: microbe, parasite or virus in culture; type: cell-based; conditions: read-out: EC50 ECHO30
[36] = test system: Enterovirus D68/US/KY/14-18953; experiment: Antiviral assay, Enterovirus D68 strain US/KY/14-18953 in RD cells; type: cell-based
[37] = test system: Coxsackievirus B3-H3; experiment: microbe, parasite or virus in culture; type: cell-based
[38] = test system: Enterovirus D68/US/Mo/14-18949; experiment: Antiviral assay, Enterovirus D68 strain US/Mo/14-18949 in RD cells; type: cell-based
[39] = test system: Coxsackievirus B1; experiment: microbe, parasite or virus in culture; type: cell-based
[40] = test system: Vero 76
[41] = test system: Coxsackievirus A9; experiment: microbe, parasite or virus in culture; type: cell-based
[42] = in vitro; conditions: human
[43] = in vitro
[44] = in vitro; conditions: dog
[45] = Enterovirus B, B4 / CVB4, read-out: EC50 CVB4
[46] = Enterovirus A, EV71, read-out: EC50 EV71
[47] = Enterovirus B, B5 / CVB5, read-out: EC50 CVB5
[48] = Enterovirus B, B2 / CVB2, read-out: EC50 CVB2
[49] = Coxsackievirus, B3 / CVB3, read-out: EC50 CVB3-H3
[50] = Enterovirus B, B1 / CVB1, read-out: EC50 CVB1
[51] = Enterovirus B, A9, read-out: EC50 COX A9

For `Nc1cc2nc[nH]c2c(=O)[nH]1` [3-Deazaguanine, reference compound], the CC50 [1] was over 100 µM and the EC50 ([2]; Measles morbillivirus, Vero 76, read-out: EC50 Measles) was 2.4 µM.
`O=c1cnn([C@@H]2O[C@H](CO)[C@@H](O)[C@H]2O)c(=O)[nH]1` [Compound 6-Azauridine, 6-Azauridine, reference compound] showed a CC50 [3] of 10 µM and an EC50 ([4]; Yellow fever virus, Vero) of 0.29 µM.
`CC(C)n1ncc2c(C(=O)Nc3ccc(F)cc3F)cc(-c3cccs3)nc21` [JX-008] gave a CC50 [5] of 38 µM, a CC50 [6] of over 100 µM and an EC50 [7] of 1.5 ± 1 µM. For the same molecule, the EC50 ([8]; read-out: EC50 CVB4) was 2.3 µM, the EC50 [9] was over 25 µM and the EC50 [10] was 0.33 ± 0.06 µM. For the same molecule, the EC50 [11] was 68 µM, the EC50 [12] was over 0.66 µM and the EC50 [13] was over 38 µM. It also gave a CC50 [14] of over 100 µM, a CC50 [15] of 50 µM and an EC50 [16] of 1.9 ± 0.7 µM. For the same molecule, the EC50 [17] was 1.4 ± 0.4 µM, the EC50 [18] was 1.5 µM and the CC50 [19] was 100 µM. For the same molecule, the CC50 [20] was over 200 µM, the CC50 [21] was over 100 µM and the EC50 ([22]; read-out: EC50 EV71) was 1.6 ± 0.4 µM. The EC50 [23] was over 0.48 µM, the EC50 ([24]; read-out: EC50 Rift Valley virus) was over 77 µM and the EC50 [25] was 70 µM. For the same molecule, the EC50 [26] was over 100 µM, the EC50 [27] was over 25 µM and the EC50 [28] was over 0.44 µM. The EC50 ([29]; read-out: EC50 Punta Toro virus) was 23 µM, the EC50 [30] was 2.4 µM and the CC50 [31] was over 200 µM. It also gave an EC50 [4] of 45 µM, an EC50 ([32]; read-out: EC50 CVB5) of 2.3 µM and an EC50 ([33]; read-out: EC50 CVB2) of 2.8 ± 0.4 µM. For the same molecule, the EC50 ([34]; read-out: EC50 RSV) was over 100 µM, the EC50 [35] was 0.8 µM and the EC50 ([2]; read-out: EC50 Measles) was 34 µM. The EC50 [36] was 0.4 ± 0.17 µM, the EC50 ([37]; read-out: EC50 CVB3-H3) was 1.4 ± 0.5 µM and the EC50 [38] was 0.28 ± 0.08 µM. For the same molecule, the EC50 ([39]; read-out: EC50 CVB1) was 2.3 µM, the CC50 ([40]; read-out: CC50 (Rift Valley virus test), with Rift Valley virus MP-12 test) was 77 µM and the CC50 ([40]; read-out: CC50 (SARS Coronavirus test), with SARS Coronavirus Urbani test) was over 100 µM. It also gave an EC50 ([41]; read-out: EC50 COX A9) of 2.3 ± 0.8 µM.
Work on `CC(C)n1ncc2c(N(C(=O)c3ccc(F)cc3)C(=O)c3ccc(F)cc3)cc(-c3cccs3)nc21` [JX-039] yielded a CC50 [42] of 10 µM, an EC50 ([7]; Enterovirus B) of over 10 µM and an EC50 [8, 45] of over 10 µM. The EC50 ([9]; Enterovirus C) was over 10 µM, the EC50 ([16]; Enterovirus B) was 2.4 µM and the EC50 ([17]; Enterovirus B) was over 10 µM. For the same molecule, the EC50 ([18]; Enterovirus B) was over 10 µM, the EC50 [22, 46] was 3.2 ± 0.1 µM and the EC50 ([27]; Enterovirus C) was over 10 µM. The EC50 ([30]; Enterovirus B) was over 10 µM, the EC50 [32, 47] was over 10 µM and the EC50 [33, 48] was 4.7 µM. For the same molecule, the EC50 ([35]; Enterovirus B) was over 10 µM, the EC50 [37, 49] was 4.7 µM and the EC50 [39, 50] was 4.7 µM. It also gave an EC50 [41, 51] of 4.5 µM.
In the case of `CC(C)n1ncc2c(NC(=O)c3ccc(F)cc3)cc(-c3cccs3)nc21` [JX-054], the EC50 ([7]; Enterovirus B) is reported as 2.4 µM, the EC50 [8, 45] is reported as 4.7 µM and the EC50 ([9]; Enterovirus C) is reported as over 10 µM. The EC50 ([10]; Enterovirus D) was 2.4 µM, the EC50 ([17]; Enterovirus B) was 3.1 µM and the EC50 [22, 46] was 4 µM. For the same molecule, the EC50 ([27]; Enterovirus C) was over 10 µM, the EC50 ([30]; Enterovirus B) was 4.7 µM and the EC50 [32, 47] was 4.7 µM. It also gave an EC50 [33, 48] of 4.7 µM, an EC50 ([35]; Enterovirus B) of 4.7 µM and a CC50 [43] of 50 µM. It also gave an EC50 ([36]; Enterovirus D) of 3.4 ± 1.18 µM, an EC50 [37, 49] of 4.7 µM and an EC50 ([38]; Enterovirus D) of 2.53 ± 0.23 µM. The EC50 [39, 50] was 4.7 µM and the EC50 [41, 51] was 4.7 µM.
`NC(=O)c1ncn([C@@H]2O[C@H](CO)[C@@H](O)[C@H]2O)n1` [Ribavirin, reference compound] showed an EC50 ([24]; Vero 76, read-out: EC50 Rift Valley virus) of 9.1 µM, an EC50 ([25]; Influenza A virus, H1N1, MDCK) of 7.5 µM and an EC50 ([29]; Punta Toro virus, Vero 76, read-out: EC50 Punta Toro virus) of 11 µM. The CC50 [44] was over 320 µM and the EC50 ([34]; human respiratory syncytial virus, MA104, read-out: EC50 RSV) was 12 µM.
